Measurements taken from ChEMBL document CHEMBL1781936, “Structure-based design of potent aromatase inhibitors by high-throughput docking” (J Med Chem, 2011).

Biological target: T1, Aromatase (Homo sapiens, UniProt P11511)
T1 sequence (P11511 whole entry): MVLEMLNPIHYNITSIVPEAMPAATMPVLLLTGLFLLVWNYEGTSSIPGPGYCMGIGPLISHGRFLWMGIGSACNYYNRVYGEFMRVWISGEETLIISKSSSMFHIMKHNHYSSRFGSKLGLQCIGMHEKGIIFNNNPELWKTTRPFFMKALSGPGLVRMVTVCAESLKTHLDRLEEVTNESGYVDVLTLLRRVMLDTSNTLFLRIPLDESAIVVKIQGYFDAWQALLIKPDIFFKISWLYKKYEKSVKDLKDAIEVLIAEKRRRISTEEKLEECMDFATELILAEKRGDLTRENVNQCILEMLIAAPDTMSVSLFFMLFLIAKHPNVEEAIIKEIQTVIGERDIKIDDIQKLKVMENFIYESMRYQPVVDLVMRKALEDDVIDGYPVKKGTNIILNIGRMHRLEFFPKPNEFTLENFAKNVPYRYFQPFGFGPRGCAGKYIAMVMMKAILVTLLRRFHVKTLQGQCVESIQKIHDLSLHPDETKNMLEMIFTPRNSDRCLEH
Experiment: Inhibition of human recombinant aromatase using 7-methoxy-4-trifluoromethyl coumarin as substrate at 25 uM by fluorimetric analysis; call rule not given here

Row | inhibition (INH) | Structure (SMILES)
1 | Not Active | CC(C)(C)C(Cn1ccnc1)NC(=O)c1cc(N2CCOCC2)nc2ccccc12 (racemic)

Biological target: T1, Aromatase
Experiment: Inhibition of human recombinant aromatase using 7-methoxy-4-trifluoromethyl coumarin as substrate by fluorimetric analysis

Row | IC50 | Structure (SMILES)
2 | 119 nM | O=S(=O)(NCCCn1ccnc1)c1ccc2c(c1)OCCO2
3 | 34.5 nM | O=C(Cc1ccc(F)cc1)N1CCOC(Cn2ccnc2)C1 (racemic)
4 | 172 nM | Cc1cc(C)c(S(=O)(=O)NCCCn2ccnc2)cc1C
5 | 59.2 nM | COc1cc(CC(=O)N2CCOC(Cn3ccnc3)C2)cc(OC)c1OC (racemic)
6 | 498 nM | COc1cc2c(cc1-c1cncn1CCCn1ccnc1C)OCCCO2
7 | 2500 nM | C=CCN(c1ccc(C(=O)NCCCn2ccnc2)cc1)S(C)(=O)=O
8 | 9.4 nM | COc1ccc(S(=O)(=O)N2CCCC(Cn3ccnc3)C2)cc1C(C)(C)C (racemic)
9 | 61.6 nM | COc1ccc(S(=O)(=O)NCCCn2ccnc2)cc1C
10 | 21700 nM | O=c1oc2cc(OCC(O)Cn3cncn3)ccc2c2c1CCC2 (racemic)
11 | 761 nM | CCOc1ccc(S(=O)(=O)NCCCn2ccnc2)c2ccccc12
12 | 10600 nM | Cc1ccc(C(=O)NCCCn2ccnc2)cn1
13 | 248 nM | O=C(Cn1ccnc1)Nc1ccccc1Oc1ccc(F)cc1
14 | 3500 nM | Cc1ncc(CNc2ccc(OCC(O)Cn3ccnc3)cc2)cn1 (racemic)
15 | 5790 nM | COc1ccc2c(c1)OC1(CCN(C(=O)Cn3cncn3)CC1)CC2=O
16 | 499 nM | CC1(C)Oc2ccc(S(=O)(=O)NCCCn3ccnc3)cc2NC1=O
17 | 66.5 nM | CC(=O)c1ccc(S(=O)(=O)N2CCOC(Cn3ccnc3)C2)cc1 (racemic)
18 | 440 nM | COc1ccc(S(=O)(=O)NCCCn2ccnc2)cc1C(C)(C)C
19 | > 25000 nM | CC(CNC(=O)c1cc2c([nH]c1=O)CCCCC2)n1cncn1 (racemic)
20 | 100 nM | COc1ccc(S(=O)(=O)NCCCn2ccnc2)cc1F
21 | 1000 nM | Cc1ccc(C(=O)NCCCn2ccnc2)cc1[N+](=O)[O-]
22 | 13200 nM | CC(C)(C(=O)Nc1ccccc1Oc1ccc(F)cc1)n1cncn1
23 | 78.8 nM | COc1ccc(S(=O)(=O)N2CCOC(Cn3ccnc3)C2)cc1 (racemic)
24 | 10600 nM | CCc1[nH]c2ccc(C(=O)NCC(C)n3cncn3)cc2c1C (racemic)
25 | 46.7 nM | O=C(Cc1ccc2c(c1)OCO2)N1CCOC(Cn2ccnc2)C1 (racemic)
26 | 3100 nM | COc1ccc(C(C)NC(=O)c2ccccc2Cn2cncn2)cc1F (racemic)
27 | 3100 nM | O=C(CCn1ccnc1)NC[C@H]1CC[C@H](c2ncncc2-c2ccccn2)CC1
28 | 63.7 nM | COc1cc(Cl)c(S(=O)(=O)NCCCn2ccnc2)cc1Cl
29 | 991 nM | O=C(Cn1cncn1)NC(CCc1ccccc1)c1ccc2c(c1)OCCO2 (racemic)
30 | 441 nM | O=C(C(=Cc1ccccc1)n1cncn1)c1ccc(Cl)cc1Cl (mixture of isomers)
31 | 16.5 nM | COc1ccc(C(=O)OC(COc2ccccc2)Cn2ccnc2)cc1 (racemic)

Test system: not listed separately
Experiment: Solubility of the compound
Format: physicochemical

Row | solubility | Structure (SMILES)
32 | Insoluble | COc1cc2sc(NC(=O)c3ccccc3Cn3cncn3)nc2cc1Cl
